Experimental data reported in patent publication US11952349B2, “Anti-cancer nuclear hormone receptor-targeting compounds” (Nuvation Bio Inc., priority 2019, dated 2024).
Where two headings read alike, the source gives them in different places.

Assays:
[1] = target: Human recombinant PARP2 (Homo sapiens, UniProt Q9UGN5); test: RBC HotSpot PARP2 assay (radioisotope-based filter binding); format: biochemical
Description: The following methods are for evaluating the in vitro biology properties of the test articles. • a. RBC HotSpot Poly(ADP-ribose) Polymerases 1 (PARP1) and Poly(ADP-ribose) Polymerases 2 (PARP2) Assays: The assay was conducted at Reaction Biology Corporation (RBC; Malvern, PA). The assay principle is radioisotope-based filter binding assay where incorporation of radioisotope-labeled NAD^+ into the substrate captured on filter is detected after washout free NAD^+. Data were analyzed using Excel and GraphPad Prism software for IC50 curve fits. Each assay was conducted with PJ34 as a positive control. PARP1 assay: Human recombinant PARP1 at a final concentration of 2.5 nM was combined with histone H4 (20 μM) and test articles at various concentrations in reaction buffer (50 mM Tris-HCL, pH 8.0, 50 mM NaCl, 10 mM MgCl2, 1 mM DTT, 1% DMSO, and 20 μg/mL activated DNA). The solution was inoculated for 20 min at room temperature and the reaction initiated by adding [adenylate-^32P]-Nicotinamide Adenine Dinucleotide, ^32P-NAD^+ at a final concentration of 10 μM. After incubation for 2 hrs at room temperature, the reaction mixture was filtered and washed with 0.75% phosphoric acid for radioactivity detection. • ii. PARP2 assay: Human recombinant PARP2 at a final concentration of 2.5 nM was combined with histone H3 (20 μM) and test articles at various concentrations in reaction buffer (50 mM Tris-HCL, pH 8.0, 50 mM NaCl, 10 mM MgCl2, 1 mM DTT, 1% DMSO, and 20 μg/mL activated DNA). The solution was inoculated for 20 min at room temperature and the reaction was initiated by adding [adenylate-^32P]-Nicotinamide Adenine Dinucleotide, ^32P-NAD^+ at a final concentration of 10 μM. After incubation for 2 hrs at room temperature, the reaction mixture was filtered and washed with 0.75% phosphoric acid for radioactivity detection. • b. AR binding assay: AR in LNCaP cytosol was used for determining the binding affinity of test articles and the reference compound—progesterone (Sigma, Cat: E2785, St. Louis, MO). IC50 s were determined using 8 concentrations/compound. Cytosol is plated at 200 μg/well (100 μL) into a 96-well conical polypropylene plate (Agilent, Cat: 5042-1385, Santa Clara, CA) and mixed with 3 μL of test compound. After adding 100 μL of ^3H-methyltrienolone (PerkinElmer, Cat: NET590250UC, San Jose, CA), the plate was sealed and shaken at 300 rpm at 4° C. for 24 hours. Post incubation, 100 μL of radioligand adsorption buffer containing 10 mM Tris-HCl, pH 7.4; 1.5 mM EDTA; 1 mM DTT; 0.25% charcoal; 0.0025% dextran was added to individual wells. Plate was shaken for 15 min at 4° C. followed by centrifugation at 3000 rpm for 30 min at 4° C. 150 μL of supernatant is transferred into scint-tube (PerkinElmer, Cat: 6000192) and mixed with 2 mL of Ultima Gold Cocktail (PerkinElmer, Cat: 6013329). Radioactivity is counted using a TriCarb 2910 TR scintillation counter (PerkinElmer). Inhibition of the radioactivity by test articles was calculated using the equation below: % Inhibition=(1−(Assay well−Average_LC)/(Average_HC−Average_LC))×100%. • IC50 values (Table 6) were calculated and graphed using the model “log(inhibitor) vs. response—Variable slope” included in GraphPad Prism 5 (San Diego, CA). The Ki values were further calculated using the equation below where [L] is the radioligand concentration (1 nM) used in this study. Kd value was 0.332 nM. Ki=IC50/(1+[L]/Kd) • c. AR transactivation: Human AR cloned into a CMV vector backbone is used for the transactivation study. HEK-293 cells are plated at 80,000 cells per well of a 24 well plate in DME+5% csFBS. Twenty four hours later, the cells are transfected using Lipofectamine (Invitrogen, Carlsbad, CA) with 0.25 μg GRE-LUC, 0.01 μg CMV-LUC (renilla luciferase) and 25 ng of the AR in OPTIMEM medium. The cells are treated 24 hrs after transfection with various ligands (10^−12 to 10^−5 M final concentrations) and luciferase assay performed 48 hours after transfection. […]

[2] = target: T1, Progesterone PR-B receptors from human breast carcinoma T47D cells (Homo sapiens, UniProt P06401); test: PR binding assay, [3H]Progesterone; conditions: Table 8; 0.5 nM [3H]Progesterone
T1 construct: endogenous in cells; host or cells: T47D human breast carcinoma cells (cell supernatant)
T1 sequence (P06401 1-933): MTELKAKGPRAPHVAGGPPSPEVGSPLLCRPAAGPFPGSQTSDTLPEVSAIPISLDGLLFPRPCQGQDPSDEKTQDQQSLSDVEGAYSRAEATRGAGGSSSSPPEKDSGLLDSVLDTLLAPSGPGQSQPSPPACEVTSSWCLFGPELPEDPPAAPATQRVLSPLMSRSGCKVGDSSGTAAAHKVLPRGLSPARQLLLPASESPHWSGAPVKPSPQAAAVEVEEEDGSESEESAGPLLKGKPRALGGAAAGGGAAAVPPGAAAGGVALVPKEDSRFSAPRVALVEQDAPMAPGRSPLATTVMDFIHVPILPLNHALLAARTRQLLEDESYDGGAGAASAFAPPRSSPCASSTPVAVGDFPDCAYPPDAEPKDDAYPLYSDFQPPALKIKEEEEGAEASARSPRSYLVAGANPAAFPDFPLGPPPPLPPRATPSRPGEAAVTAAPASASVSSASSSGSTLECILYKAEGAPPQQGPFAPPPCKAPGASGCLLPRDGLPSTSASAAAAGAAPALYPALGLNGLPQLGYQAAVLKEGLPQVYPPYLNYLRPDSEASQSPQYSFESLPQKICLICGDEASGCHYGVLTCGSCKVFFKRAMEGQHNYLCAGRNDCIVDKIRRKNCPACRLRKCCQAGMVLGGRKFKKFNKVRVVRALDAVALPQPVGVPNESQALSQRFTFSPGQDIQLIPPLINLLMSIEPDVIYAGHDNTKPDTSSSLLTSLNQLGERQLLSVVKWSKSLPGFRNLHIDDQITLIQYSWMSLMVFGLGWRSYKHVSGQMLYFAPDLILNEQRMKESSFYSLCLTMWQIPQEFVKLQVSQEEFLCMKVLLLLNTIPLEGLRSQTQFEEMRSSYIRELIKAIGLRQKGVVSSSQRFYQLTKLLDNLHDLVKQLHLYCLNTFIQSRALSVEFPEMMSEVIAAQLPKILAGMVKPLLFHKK
Description: PR binding assay: Progesterone PR-B receptors from human breast carcinoma T47D cells are used in modified Na2HPO4/NaH2PO4 buffer pH 7.4. Compounds were screened at a range of doses (Top dose 40 nM, 4 fold serial dilution, 8 point dose response) and were dispensed into the assay plate. Supernatant of 1.2×10^5 cells aliquot was added to the assay plate and was incubated with 0.5 nM [^3H]Progesterone for 20 hours at 4° C. Membranes are filtered and washed, the filters are then counted to determine [^3H]Progesterone specifically bound. Binding IC50 was determined as the concentration where 50% inhibition of radioligand binding was observed.

Sequence of Human recombinant PARP2 (Q9UGN5 whole entry): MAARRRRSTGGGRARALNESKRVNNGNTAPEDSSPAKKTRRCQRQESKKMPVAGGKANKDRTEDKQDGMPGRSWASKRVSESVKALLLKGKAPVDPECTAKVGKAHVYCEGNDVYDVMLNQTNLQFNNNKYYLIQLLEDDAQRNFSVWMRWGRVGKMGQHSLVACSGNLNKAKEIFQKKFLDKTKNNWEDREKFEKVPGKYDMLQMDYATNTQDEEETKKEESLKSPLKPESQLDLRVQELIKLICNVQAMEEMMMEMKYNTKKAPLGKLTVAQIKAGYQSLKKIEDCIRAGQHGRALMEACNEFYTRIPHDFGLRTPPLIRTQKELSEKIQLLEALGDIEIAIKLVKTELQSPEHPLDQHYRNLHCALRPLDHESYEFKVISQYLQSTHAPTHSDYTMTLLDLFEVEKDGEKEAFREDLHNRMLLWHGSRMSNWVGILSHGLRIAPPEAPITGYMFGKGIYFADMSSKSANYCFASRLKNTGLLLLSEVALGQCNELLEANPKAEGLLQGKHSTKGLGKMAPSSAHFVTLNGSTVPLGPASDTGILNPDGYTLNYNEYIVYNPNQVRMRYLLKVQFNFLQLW

IC50 [2] | Structure (SMILES) | IC50 ([1]; Table 9, read-out: PARP2) | IC50 ([1]; Table 5, in vitro results, read-out: PARP2 IC50)
– | C[C@@]12CCC(=O)C[C@H]1CC[C@H]1[C@H]2CC[C@]2(C)[C@@H]1CC[C@H]2OCCCCCCNC(=O)c1cc(Cc2n[nH]c(=O)c3ccccc23)ccc1F (stereo in doubt) [Compound 1426, N-(6-((5R,8S,9R,10R,13R,14R,17R)-10,13-dimethyl-3-oxohexadecahydro-1H-cyclopenta[a]phenanthren-17-yloxy)hexyl)-2-fluoro-5-((4-oxo-3,4-dihydrophthalazin-1-yl)methyl)benzamide] | 1 to 10 nM | –
< 10 nM | CC#C[C@]1(O)CC[C@H]2[C@@H]3CCC4=CC(=O)CCC4=C3[C@@H](c3ccc(N(C)CCCCCC(=O)N4CCN(C(=O)c5cc(Cc6n[nH]c(=O)c7ccccc67)ccc5F)CC4)cc3)C[C@@]21C [Compound 135, 4-(4-fluoro-3-(4-(6-((4-((8S,11R,13S,14S,17S)-17-hydroxy-13-methyl-3-oxo-17-(prop-1-ynyl)-2,3,6,7,8,11,12,13,14,15,16,17-dodecahydro-1H-cyclopenta[a]phenanthren-11-yl)phenyl)(methyl)amino)hexanoyl)piperazine-1-carbonyl)benzyl)phthalazin-1(2H)-one] | < 1 nM | –
– | C[C@]12C[C@H](CCCCCC(=O)N3CCN(C(=O)c4cc(Cc5n[nH]c(=O)c6ccccc56)ccc4F)CC3)C3=C4CCC(=O)C=C4CC[C@H]3[C@@H]1CCC2O (stereo partly drawn) [Compound 138, 4-(4-fluoro-3-(4-(6-((8S,11S,13S,14S)-17-hydroxy-13-methyl-3-oxo-2,3,6,7,8,11,12,13,14,15,16,17-dodecahydro-1H-cyclopenta[a]phenanthren-11-yl)hexanoyl)piperazine-1-carbonyl)benzyl)phthalazin-1(2H)-one] | < 1 nM | –
– | Cn1ncnc1C1c2n[nH]c(=O)c3cc(F)cc(c23)N[C@@H]1c1ccc(NC(=O)CCCCCO[C@@H]2CC[C@H]3[C@@H]4CC[C@H]5CCCC[C@]5(C)[C@H]4CC[C@]23C)cc1 (stereo partly drawn) [Compound 1128, 6-((5R,8R,9S,10S,13S,14S,17R)-10,13-dimethylhexadecahydro-1H-cyclopenta[a]phenanthren-17-yloxy)-N-(4-((8S)-5-fluoro-9-(1-methyl-1H-1,2,4-triazol-5-yl)-3-oxo-3,7,8,9-tetrahydro-2H-pyrido[4,3,2-de]phthalazin-8-yl)phenyl)hexanamide] | – | 14 nM
< 10 nM | CC(=O)O[C@]1(C(C)=O)CC[C@H]2[C@@H]3CCC4=CC(=O)CCC4=C3[C@@H](c3ccc(N(C)CCCCCC(=O)N4CCN(C(=O)c5cc(Cc6n[nH]c(=O)c7ccccc67)ccc5F)CC4)cc3)C[C@@]21C [Compound 1378, (8S,11R,13S,14S,17R)-17-acetyl-11-(4-((6-(4-(2-fluoro-5-((4-oxo-3,4-dihydrophthalazin-1-yl)methyl)benzoyl)piperazin-1-yl)-6-oxohexyl)(methyl)amino)phenyl)-13-methyl-3-oxo-2,3,6,7,8,11,12,13,14,15,16,17-dodecahydro-1H-cyclopenta[a]phenanthren-17-yl acetate] | < 1 nM | –
< 10 nM | CC(=O)O[C@]1(C(C)=O)CC[C@H]2[C@@H]3CCC4=CC(=O)CCC4=C3[C@@H](c3ccc(N(C)CCCCCC(=O)NCCOCCOCC(=O)N4CCN(C(=O)c5cc(Cc6n[nH]c(=O)c7ccccc67)ccc5F)CC4)cc3)C[C@@]21C [Compound 1384, (8S,11R,13S,14S,17R)-17-acetyl-11-(4-((6-(2-(2-(2-(4-(2-fluoro-5-((4-oxo-3,4-dihydrophthalazin-1-yl)methyl)benzoyl)piperazin-1-yl)-2-oxoethoxy)ethoxy)ethylamino)-6-oxohexyl)(methyl)amino)phenyl)-13-methyl-3-oxo-2,3,6,7,8,11,12,13,14,15,16,17-dodecahydro-1H-cyclopenta[a]phenanthren-17-yl acetate] | < 1 nM | –
– | C[C@]12Cc3cn[nH]c3C[C@@H]1CC[C@@H]1[C@@H]2CC[C@]2(C)[C@@H](OCCCCCC(=O)N3CCN(C(=O)c4cc(Cc5n[nH]c(=O)c6ccccc56)ccc4F)CC3)CC[C@@H]12 [Compound 1394, 4-(3-(4-(6-(((1S,3aS,3bR,5aS,10aS,10bS,12aS)-10a,12a-dimethyl-1,2,3,3a,3b,4,5,5a,6,7,10,10a,10b,11,12,12a-hexadecahydrocyclopenta[5,6]naphtho[1,2-f]indazol-1-yl)oxy)hexanoyl)piperazine-1-carbonyl)-4-fluorobenzyl)phthalazin-1(2H)-one] | 1 to 10 nM | –

Structure (SMILES) | IC50 [2] | IC50 ([1]; Table 9, read-out: PARP2) | IC50 ([1]; Table 5, in vitro results, read-out: PARP2 IC50)
C[C@]12CC[C@H]3[C@@H](CCC4=CC(=O)CC[C@@]43C)[C@@H]1CC[C@@H]2C(=O)COCCCCCC(=O)N1CCN(C(=O)c2cc(Cc3n[nH]c(=O)c4ccccc34)ccc2F)CC1 [Compound 1386, 4-(3-(4-(6-(2-((8S,9S,10R,13S,14S,17S)-10,13-dimethyl-3-oxo-2,3,6,7,8,9,10,11,12,13,14,15,16,17-tetradecahydro-1H-cyclopenta[a]phenanthren-17-yl)-2-oxoethoxy)hexanoyl)piperazine-1-carbonyl)-4-fluorobenzyl)phthalazin-1(2H)-one] | 10 to 100 nM | < 1 nM | –
